Entries after “also recorded” stand apart in the source; their conditions may differ. Read-outs that look alike come from different tables or passages of the source. Square brackets hold non-standard residues; d marks the D form. Peptide text beside a SMILES is read from it. * marks the point of attachment. ξ: configuration not given here. Aoe(9ξ) = N[C@@H](CCCCCC(=O)C1CO1)C(=O)O; Asu = N[C@@H](CCCCCC(=O)O)C(=O)O; dPip = O=C(O)[C@H]1CCCCN1; NHOH = ON*
Columns and labels:
H3K9ac [1] = conditions: treatment at 10 μM; cited from earlier work
PGRN [2] = conditions: cited from earlier work
PGRN [3] = test: Intracellular PGRN ELISA in iPSC-derived NPCs; format: cell-based, human; conditions: for Effect on PGRN (1 μM, NPCs) / PGRN induction (in words): 18 h treatment; for Effect on PGRN (1 μM, NPCs): intracellular PGRN; for PGRN induction (in words): Figure 2; for EC50: Homo sapiens, read-out: EC50 of PGRN induction (dose-response curves)
H3K9ac [4] = test: Histone H3 acetylation Western blot in NPCs; format: cell-based, human
HDAC2 = HDAC2 (Homo sapiens, UniProt Q92769); format: biochemical
HDAC1 = HDAC1 (Homo sapiens, UniProt Q13547); test: biochemical; format: biochemical
HDACs 1–3 = test: HDAC inhibition kinetics, summary statement over HDACs 1-3; format: biochemical; conditions: summary over HDACs 1–3 (Tables 1 and S1)
[5] = biological target: HDAC3 in combination with the DAD domain of NCoR2 (Homo sapiens, UniProt O15379); conditions: read-out: Ki HDAC3; cited from earlier work
[6] = system: human iPSC-derived NPCs and Ngn2 neurons; test: Cellular viability during PGRN experiments; format: cell-based; conditions: 10 μM, 18 h treatment (Figure 2)
HDAC6 = conditions: previously reported; cited from earlier work
[7] = kinetic model from progression curves

Sequence of HDAC1 (Q13547 9-376 limits assumed): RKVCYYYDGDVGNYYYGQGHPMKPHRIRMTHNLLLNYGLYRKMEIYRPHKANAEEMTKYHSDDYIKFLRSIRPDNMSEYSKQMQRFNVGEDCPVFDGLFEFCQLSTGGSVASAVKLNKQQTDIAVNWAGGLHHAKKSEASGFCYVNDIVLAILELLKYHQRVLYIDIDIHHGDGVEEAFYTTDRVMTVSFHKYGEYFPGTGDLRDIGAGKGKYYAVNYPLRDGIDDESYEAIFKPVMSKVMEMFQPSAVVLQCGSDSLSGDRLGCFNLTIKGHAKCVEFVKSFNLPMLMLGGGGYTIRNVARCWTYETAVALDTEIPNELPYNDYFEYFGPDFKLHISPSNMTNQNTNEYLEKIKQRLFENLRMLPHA
Sequence of HDAC2 (Q92769 9-376 limits assumed): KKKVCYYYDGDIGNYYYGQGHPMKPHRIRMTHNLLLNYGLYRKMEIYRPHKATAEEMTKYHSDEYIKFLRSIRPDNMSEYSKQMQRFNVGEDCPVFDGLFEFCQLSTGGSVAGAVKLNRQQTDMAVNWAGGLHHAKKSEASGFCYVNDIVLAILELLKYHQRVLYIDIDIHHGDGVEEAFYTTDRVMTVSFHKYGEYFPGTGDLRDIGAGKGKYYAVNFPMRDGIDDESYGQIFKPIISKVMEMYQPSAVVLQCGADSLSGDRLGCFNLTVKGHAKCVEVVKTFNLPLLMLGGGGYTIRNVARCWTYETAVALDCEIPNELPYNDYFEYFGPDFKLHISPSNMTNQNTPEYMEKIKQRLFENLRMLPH
Sequence of HDAC3 in combination with the DAD domain of NCoR2 (O15379 whole entry, the tested form may be a part): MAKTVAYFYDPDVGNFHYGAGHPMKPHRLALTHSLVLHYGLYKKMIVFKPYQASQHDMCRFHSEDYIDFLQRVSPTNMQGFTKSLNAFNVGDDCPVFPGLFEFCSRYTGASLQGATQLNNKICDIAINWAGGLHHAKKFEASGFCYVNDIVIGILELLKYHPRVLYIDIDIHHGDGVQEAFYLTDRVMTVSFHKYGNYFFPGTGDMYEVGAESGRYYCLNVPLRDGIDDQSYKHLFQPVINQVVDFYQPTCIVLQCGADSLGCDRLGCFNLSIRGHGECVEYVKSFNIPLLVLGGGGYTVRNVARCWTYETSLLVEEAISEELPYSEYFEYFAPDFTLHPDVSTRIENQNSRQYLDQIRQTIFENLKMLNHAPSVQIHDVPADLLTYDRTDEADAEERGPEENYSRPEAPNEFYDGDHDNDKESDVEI
Sequence of HDAC3 in combination with the DAD domain of NCoR2 (Q9Y618 395-489 partner limits assumed): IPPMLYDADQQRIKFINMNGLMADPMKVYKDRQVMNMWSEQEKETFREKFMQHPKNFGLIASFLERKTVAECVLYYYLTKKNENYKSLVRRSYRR

Row | Molecule | Effect on PGRN (1 μM, NPCs) (PGRN [3]; NPCs) | PGRN induction (in words) (PGRN [3]; NPCs) | Effect on H3K9ac (1 μM, NPCs) (H3K9ac [4]; NPCs, 18 h treatment) | Mechanism of binding HDAC1 (HDAC1; [7]) | EC50 (PGRN [3]; 18 h) [nM] | Mechanism of binding HDAC2 (HDAC2; [7]) | dissociative half-life (dis. t½) (HDACs 1–3) | further results
1 | O=C(CCCCCCC(=O)Nc1ccccc1)NO [Compound 1, SAHA] | – | – | – | – | – | – | – | Effect on H3K9ac (NPCs) (H3K9ac [1]): >20 fold incr.‡, [10]; Effect on PGRN (NPCs) (PGRN [2]; treatment at 10 μM): >2 fold incr.‡, [10]
2 | O=C(CCCCCCC(=O)C(F)(F)F)Nc1ccccc1 [Compound 2, SATK] | No change | not able to affect PGRN production | No change | – | – | – | – | –
3 | CC(=O)Nc1ccc(C(=O)Nc2ccccc2N)cc1 [Compound 3, tacedinaline] | – | not able to affect PGRN production | – | mechanism B type of slow-binding inhibition | > 20000 | – | – | Mechanism of binding HDAC2 (HDAC2): mechanism B type of slow-binding inhibition; Effect on PGRN (NPCs) (PGRN [3]; treatment at 10 μM, NPCs, 18 h): Decrease^‡; Intensity of histone marks (H3 acetylation at K9 and K27) (H3K9ac [4]; Western blot, 18 h treatment, Figure 3 and S7): levels comparable to panobinostat; Effect on H3K9ac (NPCs) (H3K9ac [4]; treatment at 10 μM, NPCs, 18 h): ~18 fold incr^‡
4 | CC(=O)Nc1ccc(C(=O)Nc2cc(-c3cccs3)ccc2N)cc1 [Compound 4, Cpd-60] | – | – | – | – | – | – | – | PGRN induction (in words) (PGRN [2]; human neuronal cell culture): not able to affect PGRN production
5 | Cc1[nH]c2ccccc2c1CCNCc1ccc(/C=C/C(=O)NO)cc1 [Compound 5, panobinostat] | ~2.3 fold incr. | – | ~36 fold incr. | – | 200 ± 10 | slow, tight-binding inhibition profiles (mechanism B); also recorded: effectively irreversible behavior | over 20 min | –
6 | O=C(CCCCC[C@@H]1NC(=O)[C@H]2CCCCN2C(=O)[C@H](Cc2ccccc2)NC(=O)[C@H](Cc2ccccc2)NC1=O)C1CO1 (stereo partly shown) [Compound 6, trapoxin A] (cyclo(FF[dPip][Aoe(9ξ)])) | ~2.4 fold incr. | substantial increase in PGRN | ~5.0 fold incr. | mechanism A kinetics | 22 ± 1 | mechanism A kinetics | – | Ki (HDAC1): ~0.003 nM
7 | O=C(CCCCC[C@@H]1NC(=O)[C@H]2CCCN2C(=O)[C@H](Cc2ccccc2)NC(=O)[C@H](Cc2ccccc2)NC1=O)NO [Compound 7c, TpxB^Asuha] (cyclo([Asu](NHOH)FF[dP])) | ~2.2 fold incr. | substantial increase in PGRN | ~6.3 fold incr. | – | – | – | over 20 min | Ki [5]: ~0.02 nM
8 | CCC(=O)CCCCC[C@@H]1NC(=O)[C@H]2CCCCN2C(=O)[C@H]([C@@H](C)CC)NC(=O)[C@H](Cc2cn(OC)c3ccccc23)NC1=O [Compound 8a, apicidin] | ~1.7 fold incr. | – | ~3.3 fold incr. | – | 790 ± 20 | fast-on/fast-off binding kinetics | – | Mechanism of binding HDAC1 (HDAC1): fast-on/fast-off binding kinetics
9 | C/C=C1\NC(=O)[C@H]2CSSCC/C=C/[C@H](CC(=O)N[C@H](C(C)C)C(=O)N2)OC(=O)[C@H](C(C)C)NC1=O [Compound 10, romidepsin] | ~4.1 fold incr. | substantial increase in PGRN | ~2.3 fold incr. | slow, tight-binding (mechanism B) | – | – | over 20 min | Cellular viability [6]: impaired cellular viability; Ki (HDAC1): ~0.02 nM
10 | C[C@@H]1NC(=O)[C@H]2CCCN2C(=O)[C@H](CCCCCC(=O)[C@@H]2CO2)NC(=O)[C@@H](C)NC1=O [Compound S2, HC-toxin] | – | – | – | – | – | – | – | Mechanism of binding HDAC6 (HDAC6): fast-on/fast-off kinetics
11 | trichostatin A [Compound S1] | – | – | – | slow, tight-binding inhibition profiles (mechanism B) | – | slow, tight-binding inhibition profiles (mechanism B) | over 20 min | –
